In assay [1] the test system is antigen-induced SRS-A release. The assay can be described thus: Passive peritoneal anaphylaxis (PPA) in rats: SRS-A release. It is filed as in vivo, male Wistar rats. Particulars: Rattus norvegicus, ip, 100 μg/kg i.p., 30 sec before antigen, DSCG value is mean of 3 rats (footnote 1). The method, then:
(A) Passive peritoneal anaphylaxis (PPA) in rats
The method was based on that of Orange et al^(1). Briefly, male Wistar rats weighing 275 to 325 g (Shizuoka Exp. Animal Agric, Coop. Assoc.) were sensitized by intraperitoneally (i.p.) injecting 5 ml of diluted (40-fold) mouse anti-DNP reaginic serum (PCA titer: 1280). After 4 hr, 5 ml of Tyrode solution containing 250 μg heparin and 2 mg DNP-BSA was injected i.p. Test drugs (100 μg/kg) were dissolved in 0.6 ml of saline and injected i.p. 30 sec before antigen administration. Five min. later, the rats were decapitated and the peritoneal fluid was collected by opening the peritoneal cavity into polycarbonate tubes in ice. The supernatant was separated for bioassay from the cellular residue by centrifugation at 2000 rpm for 5 min at 4° C.
Histamine and SRS-A were assayed using isolated guinea-pig ileum in the presence of 10^-7 M FPL-55712 and 10^-6 M mepyramine, respectively, in addition to 5×10^-7 M atropine. One unit of SRS-A refers to the concentration required to produce a contraction of the guinea-pig ileum equal in amplitude to that produced by 5 ng histamine base in that assay.

For assay [2], the system named is antigen-induced histamine release. In words: Passive peritoneal anaphylaxis (PPA) in rats: histamine release. The settings on record: 100 μg/kg i.p.; for inhibition at 0.1 mg/kg: Rattus norvegicus, ip, 30 sec before antigen, histamine, DSCG value is mean of 3 rats (footnote 1). It counts as in vivo, male Wistar rats. The method, then:
(A) Passive peritoneal anaphylaxis (PPA) in rats The method was based on that of Orange et al^(1). […] After 4 hr, 5 ml of Tyrode solution containing 250 μg heparin and 2 mg DNP-BSA was injected i.p. Test drugs (100 μg/kg) were dissolved in 0.6 ml of saline and injected i.p. 30 sec before antigen administration. Five min. later, the rats were decapitated and the peritoneal fluid was collected by opening the peritoneal cavity into polycarbonate tubes in ice. The supernatant was separated for bioassay from the cellular residue by centrifugation at 2000 rpm for 5 min at 4° C. […] One unit of SRS-A refers to the concentration required to produce a contraction of the guinea-pig ileum equal in amplitude to that produced by 5 ng histamine base in that assay.

A further assay deals with T1, 5-lipoxygenase (Mus musculus, UniProt P48999).
T1 construct: endogenous in cells
T1 sequence (P48999 1-674): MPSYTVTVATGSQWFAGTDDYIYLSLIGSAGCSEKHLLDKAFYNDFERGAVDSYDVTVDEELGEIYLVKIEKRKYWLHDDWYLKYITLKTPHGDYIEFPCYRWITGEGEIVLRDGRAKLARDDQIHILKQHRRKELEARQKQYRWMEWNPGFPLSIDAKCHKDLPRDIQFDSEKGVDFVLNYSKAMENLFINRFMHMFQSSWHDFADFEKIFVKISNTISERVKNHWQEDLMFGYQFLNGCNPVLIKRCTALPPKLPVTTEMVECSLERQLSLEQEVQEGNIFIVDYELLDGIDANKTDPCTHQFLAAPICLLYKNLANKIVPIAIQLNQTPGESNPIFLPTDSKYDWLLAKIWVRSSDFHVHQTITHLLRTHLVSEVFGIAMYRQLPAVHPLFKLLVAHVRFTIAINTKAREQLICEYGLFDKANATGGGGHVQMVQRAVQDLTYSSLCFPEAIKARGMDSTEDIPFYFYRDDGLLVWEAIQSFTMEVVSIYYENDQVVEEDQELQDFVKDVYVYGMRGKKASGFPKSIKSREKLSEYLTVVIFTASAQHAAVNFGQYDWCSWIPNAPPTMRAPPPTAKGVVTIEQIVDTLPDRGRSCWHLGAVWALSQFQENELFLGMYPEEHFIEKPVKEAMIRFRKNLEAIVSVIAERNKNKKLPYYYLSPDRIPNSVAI
The assay can be described thus: Assay of 5-lipoxygenase. It is filed as biochemical. Particulars: enzyme fraction from mastocytoma P-815 cells, [1-14C]-arachidonic acid, 37° C., 5 min; Probit method; read-out: IC 50 5-Lipoxygenase. The method, then: (§1) (B) Assay of 5-lipoxygenase and cyclooygenase
(§2) The method was based on that of Koshihara et al^(1). In the case of assay of 5-lipoxygenase activity, an enzyme fraction from mastocytoma P-815 cells (10^7 cells/ml) was incubated with 0.2 μCi [1-^14 C]-arachidonic acid (56.9 Ci/mol), 0.8 mM CaCl2, 2×10^-5 M indoemthacin and various concentrations of test drugs at 37° C. for 5 min. In the case of assay of cyclooxygenase activity, CaCl2 and indomethacin were omitted from the above incubation mixture and incubation was performed at 37° C. for 7 min. Both reactions were terminated by adjusting the pH of the mixture to 3.0 with HCl. After extraction of the products with 8 volume ethyl acetate, each extract was concentrated and applied to TLC plate. For the separation of HETEs and prostaglandins, thin-layer chromatography was carried out using the solvent system: petroleum ether/diethyl ether/acetic acid (50:50:1) and ethyl acetate/2,2,4-trimethylpentane/acetic acid/water (11:5:2:10, upper phase), respectively. Radioactive spots were detected by autoradiography and scraped off and counted using a liquid scintillation spectrometer. The activities of 5-lipoxygenase and cyclooxygenase were expressed as the sum of radioactivities due to 5-HETE and 5,12-diHETE and due to PGD2, PGE2 and PGF2α, respectively. The IC 50 values were calculated by Probit method.

A further assay deals with cyclooxygenase. The assay can be described thus: Assay of cyclooxygenase. Particulars: enzyme fraction from mastocytoma P-815 cells, [1-14C]-arachidonic acid, 37° C., 7 min, Probit method; for IC50: read-out: IC 50 Cyclooxygenase. It is filed as biochemical. The method, then:
as §1, §2

Some results are limits rather than exact numbers.

As a reminder, the inhibition is the change of the read-out against control, counted positive when it falls.

Take `O=C(O)c1cc(=O)c2c(OCC(O)COc3cccc4oc(C(=O)O)cc(=O)c34)cccc2o1` [DSCG, disodium cromoglycate, reference compound]: the inhibition at 0.1 mg/kg in assay [1] was 46.6%; in assay [2] it was 75.2%. Further, the “inhibition of histamine release (selectivity versus SRS-A)” value in assay [2] (rat PPA) is reported as “inhibited the histamine release in a relatively selective manner”.
For the compound `CCCCC(C)C(O)CCc1ccc(O)c(O)c1` (centres unmarked) [Example 1, 1-(3,4-dihydroxyphenyl)-4-methyl-3-octanol], the inhibition at 0.1 mg/kg worked out at 76.6% in assay [1] and 37.8% in assay [2]. In addition, the IC50 on 5-lipoxygenase amounted to 300 nM. The “IC 50 Cyclooxygenase” value against cyclooxygenase is listed as “En- hanced”.
For the compound `CCCCCCC(O)CCc1ccc(O)c(O)c1` (centres unmarked) [Example 2, 1-(3,4-dihydroxyphenyl)-3-nonanol], the inhibition at 0.1 mg/kg in assay [1] came to 57.3%; in assay [2] it was 5.2%.
For `CCCCCCC(=O)CCc1ccc(O)c(O)c1` [Example 3, 1-(3,4-dihydroxyphenyl)-3-nonanone], in that order: 53.9% and 22.6%.
For the compound `CCCCCCCCC(O)CCc1ccc(O)c(O)c1` (centres unmarked) [Example 9, 1-(3,4-Dihydroxyphenyl)-3-undecanol], the values for the inhibition at 0.1 mg/kg in assay [1] and in assay [2] were 53.6% and 21.6%, respectively. For the same compound, the IC50 was 100 nM at 5-lipoxygenase and over 10000 nM on cyclooxygenase.
Turning to `CCCCCC(C)C(O)CCc1ccc(O)c(O)c1` (centres unmarked) [Example 11, 1-(3,4-Dihydroxyphenyl)-4-methyl-3-nonanol], the inhibition at 0.1 mg/kg in assay [1] was determined as 66.6%; in assay [2] it was 17.6%.
In the same order, the values of `CCCCCCCCCC(=O)Cc1ccc(O)c(O)c1` [Example 14, 1-(3,4-dihydroxyphenyl)-2-undecanone] are 58.9% and 32.7%.
For `CCCCCCC(O)CCCc1ccc(O)c(O)c1` (centres unmarked) [Example 15, 1-(3,4-dihydroxyphenyl)-4-decanol], in that order: 46.2% and 18.4%.
Turning to `CC(=O)CCCCCCCc1ccc(O)c(O)c1` [Example 20, 9-(3,4-dihydroxyphenyl)-2-nonanone], the inhibition at 0.1 mg/kg in assay [1] came out at 62.8%; in assay [2], 17.9%. Further, the IC50 on 5-lipoxygenase was found to be 230 nM.
Turning to `OCCCCCCCCCCCc1ccc(O)c(O)c1` [Example 23, 11-(3,4-dihydroxyphenyl)-1-undecanol], the inhibition at 0.1 mg/kg turned out to be 69.6% in assay [1] and 10.7% in assay [2]. Besides, the figures for the IC50 on 5-lipoxygenase and at cyclooxygenase were 54 nM and over 10000 nM, respectively.
As to `OCCCCCCCCCc1ccc(O)c(O)c1` [Example 25A, 9-(3,4-Dihydroxyphenyl)-1-nonanol], the inhibition at 0.1 mg/kg in assay [1] is 43.9%; in assay [2] it was -8.3%.
For `CCCCCC(C)C(=O)C=Cc1ccc(O)c(O)c1` (centres unmarked) [Example 29, 1-(3,4-dihydroxyphenyl)-4-methyl-1-nonen-3-one], in that order: 38.2% and -32.4%.

The record behind these values is US4618627A, “Catechol derivatives and pharmaceutical compositions thereof for inhibiting anaphylaxis (SRS-A)” (priority 1983, dated 1986).
